Assay [1] concerns hES cells. Description: Proliferation assay, 3H thymidine incorporation. It is filed as cell-based, human. Conditions: on laminin, 16 hours pulse, n=4. The procedure: Proliferation assay to quantify rates of proliferation under different culture conditions: Cells were cultured in 6 well plates on laminin in the presence of either FGF2-supplemented CM from feeder layers or activin A, KGF, NIC, or a combination of these 3 factors. Cultures were pulsed with 1 μCi/ml [methyl ^3H] thymidine (specific activity 6.7 Ci/mmol; MP Biomedicals, Irvine Calif.; www.mpbio.com) in newly replenished medium. After 16 hours, cells were harvested and thymidine incorporation into cells was quantified as previously described.^23 Briefly, DNA content was measured fluoremetrically, and incorporation of ^3H thymidine was determined by liquid scintillation counting of trichloracetic acid precipitates of the sonicated cells. Statistical significance of observed differences was determined by analysis of variance and Fischer's protected least significance difference test with a 95% level as the limit of significance using Statview IV (Abacus Concepts, Berkeley Calif.).
In general terms: Uptake of a labelled nucleoside into DNA is a usual measure of proliferation.

For assay [2], the system named is HSF6 cells. Put plainly: Follistatin added to HSF6 cells on mEFs (immunohistochemistry, RT-PCR). The assay is classed as cell-based, human. Conditions: on mEFs with follistatin. How it is done:
(§1) Stem cell culture: hES cell line HSF6 was maintained on mitomycin C treated CF1 mouse feeder layers (mEF) at 37° C., 5% CO2 in DSR medium, which consisted of high glucose DMEM containing knockout serum replacer, glutamine, non-essential amino acids, 0.1 mM β-mercaptoethanol (all from Gibco, Carlsbad, Calif.; www.invitrogen.com) as previously described,^19 or on laminin (20 μg/ml, Chemicon, www.chemicon.com) coated dishes or in DSR containing 50 ng/ml human recombinant Activin A (ACT A), 50 ng/ml human recombinant Keratinocyte Growth Factor (KGF), both from Preprotech Inc. (Rocky Hill N.J.; www.preprotech.com). These concentrations were determined from previous experiments with human fetal pancreatic cell culture.^14, 20 In some experiments, 10 ng/ml human recombinant Bone Morphogenetic Protein 4 (BMP-4; R&D Systems Minneapolis, Minn. www.RnDSystems.com) was used to replace ACT A, and 0.4 μg/ml follistatin (R&D Systems) was added to ES cells grown on mEFs, sufficient to neutralize 50 ng/ml Act A according to the manufacturer's directions. Medium was changed every day on cells grown on mEFs and every other day, on cells grown on laminin with the growth factors. Cells were passaged weekly at 1:3 or 1:4 dilution.
In some experiments, 10 ng/ml human recombinant Bone Morphogenetic Protein 4 (BMP-4; R&D Systems Minneapolis, Minn. www.RnDSystems.com) was used to replace activin A, and 2 μg/ml recombinant mouse FS-288 follistatin (R&D Systems) was added to ES cells grown on mEFs, sufficient to neutralize 50 ng/ml activin A according to manufacturer's directions. Medium was changed every day on cells grown on mEFs or in CM and every other day, on cells grown on laminin with the growth factors. Cells were passaged weekly at 1:3 or 1:4 dilution by gentle treatment with 1 mg/ml Collagenase IV (Gibco BRL) for 5 minutes, followed by scraping.
Immunohistochemistry: Stem cell cultures were grown on coverslips coated with mEFs or laminin fixed with 4% paraformaldehyde and stained. Protein expression of the stem cell markers TRA-1-60 and Oct-4 was analyzed by immunohistochemistry using primary mouse anti-TRA-1-60 (Chemicon) and rabbit anti-OCT-4 antiserum (a generous gift from Dr Hans Scholer, U Penn). Control slides were incubated with mouse IgM and rabbit IgG. […]
Alternatively, hES cell cultures were grown on coverslips coated with mEFs or laminin, fixed with 4% paraformaldehyde and immunostained as previously described.^4 Protein expression of the stem cell markers TRA-1-60, SSEA-4 and Oct-4 was analyzed using primary mouse anti-TRA-1-60 IgM (Chemicon) mouse anti-SSEA-4 IgG3 (DSHB, U of Iowa, Iowa City, Iowa), and rabbit anti-Oct-4 antiserum (a generous gift from Dr Hans Scholer, U Penn). […]

A further assay concerns the target T1, activin A (Homo sapiens, UniProt P08476).
T1 sequence (P08476 311-426): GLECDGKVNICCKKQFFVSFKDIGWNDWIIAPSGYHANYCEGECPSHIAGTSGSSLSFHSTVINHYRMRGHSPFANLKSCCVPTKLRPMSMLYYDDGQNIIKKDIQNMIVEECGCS
Conditions: cited from earlier work.

The test system of assay [3] is members of the BMP family. The settings on record: cited from earlier work.
Another assay has as its system TGFβ. Conditions: cited from earlier work.
In assay [4] the test system is HSF6 cells. Put plainly: Flow cytometric analysis of TRA-1-60 cell-surface antigen expression. It is filed as cell-based, human. The settings on record: activin removed from the culture for 1 week (NIC+KGF remain). How it is done: (§2) Alternatively, hES cell line HSF6 was maintained on mitomycin C treated CF1 mouse feeder layers (mEF) at 37° C., 5% CO2 in DSR medium as previously described^4. For the experiments described here, passage 43 hES cells were cultured on laminin (20 μg/ml, Chemicon, www.chemicon.com) coated dishes in the presence of conditioned medium from mEFs (CM) supplemented with 10 ng/ml basic fibroblast growth factor (FGF2; Preprotech Inc. Rocky Hill N.J.; www.preprotech.com), or on laminin in DSR medium containing 50 ng/ml human recombinant activin A, 50 ng/ml human recombinant KGF, both from Preprotech, and 10 mM Nicotinamide (NIC; Sigma Corp, St Louis Mo.).
Flow cytometric analysis: Flow cytometry was used to quantify undifferentiated cells under different culture conditions. Cells were harvested using a 60 minute collagenase treatment followed by shearing into a single cell suspensions and filtering using a 70 micron cell filter. Single cells from each condition were labeled with mouse anti TRA-1-60 or mouse IgM (for controls) and FITC-conjugated donkey anti-mouse IgM (Jackson Immunoresearch). Cells were analyzed using a Becton Dickinson FACScan, and cell-surface antigen expression quantitated using CellQuest software.
(In flow cytometry, cells or beads pass a laser one at a time.)

The test system of assay [5] is HSF6 cells. Put plainly: Immunohistochemistry of stem cell markers in hES cells grown on laminin. The assay is classed as cell-based, human. The settings on record: NK and A for 1 week. How it is done: as §1
(§3) Alternatively, hES cell line HSF6 was maintained on mitomycin C treated CF1 mouse feeder layers (mEF) at 37° C., 5% CO2 in DSR medium as previously described^4. […]

A further assay relates to hES cell line HSF6. Put plainly: Long-term feeder-free culture and passaging in the undifferentiated state. It is filed as cell-based, human. The procedure: as §1
as §2, with “Mo.). […]” for “Mo.).”

The next assay concerns Smad2. Put plainly: Western blotting for phosphorylated Smad2. The assay is classed as cell-based, human. Conditions: HSF6 cells grown in the presence of Activin A. The procedure: Western blotting: Western blotting was used for phosphorylated Smad2, and was performed on lysates of HSF6 cells as previously described.^4 Cells cultured in the presence of activin A were lysed in detergent containing buffer supplemented with vanadate (10 μM) and microcystin (1 μM) and first blotted with phospho-Smad2 (ser465/467) antibody (Cell Signaling, cellsignal.com). Blots were then stripped and reprobed with Smad2 antibody (Cell Signaling).

The test system of assay [6] is hES cells. Description: Semi-quantitative RT-PCR of stem cell markers in hES cells grown on laminin. The assay is classed as cell-based, human. Conditions: 1 week for NK and BMP-4 (10 ng/ml, replacing activin A). How it is done: as §1, §3

“Also recorded” adds a separate entry of the source.

Turning to `NC(=O)c1cccnc1` [NIC, nicotinamide, reference compound], in the assay on hES cells [1], the “proliferation rate (3H thymidine incorporation)” value is recorded as “intermediate”.

Regarding follistatin, in the assay on HSF6 cells [2] (1 week), the “expression of oct-4 and nanog, RT-PCR” value is “absent (nanog) or markedly diminished (oct-4)”; the “staining for TRA-1-60 and Oct-4 (immunohistochemistry)” value was “lost staining for TRA-1-60 (cytoplasmic), with reduced staining for Oct-4”. Moreover, in the assay on HSF6 cells [2] (2 weeks), the “expression of oct-4 and nanog, RT-PCR” value was “completely lost”; the “staining for Oct-4 (immunohistochemistry)” value is “Oct-4 immunoreactivity had completely disappeared”. For the same molecule, the “affinity for activin A” value on activin A is “extremely high affinity”. For the same molecule, in assay [3], the “affinity for members of the BMP family” value is recorded as “lower affinity”. For the same molecule, the “binding to TGFβ” value with TGFβ was “does not bind”.

B1: Activin A: human recombinant Activin A, TGFβ family member; homodimer of inhibin beta-A chain (protein)
chain: GLECDGKVNICCKKQFFVSFKDIGWNDWIIAPSGYHANYCEGECPSHIAGTSGSSLSFHSTVINHYRMRGHSPFANLKSCCVPTKLRPMSMLYYDDGQNIIKKDIQNMIVEECGCS
For the molecule B1, the “percentage of cells expressing TRA-1-60 after removal of activin” value with HSF6 cells [4] was found to be 3.9%. For the same molecule, the “proliferation rate (3H thymidine incorporation)” value in the assay on hES cells [1] is recorded as “significantly reduced”. Further, the “staining for TRA-1-60 and Oct-4 / phenotype (immunohistochemistry)” value with HSF6 cells [5] is “no change in phenotype”. In the assay on hES cell line HSF6 (dose response at 5, 50 and 100 ng/ml), the “concentration optimal to maintain the cells in an undifferentiated state” value was found to be 50 ng/mL. The “continued growth and passaging” value in the assay with hES cell line HSF6 (on laminin) was “could not be passaged further”. Further, the “passages of continuous growth in the undifferentiated state” value with hES cell line HSF6 (on laminin, without feeder layers, conditioned medium or STAT3 activation) is on record as “at least 10 passages”. In addition, the Smad2 phosphorylation entry with Smad2 is “showing phospho-Smad 2”.

B2: BMP-4: human recombinant Bone Morphogenetic Protein 4, another TGFβ family member, used to replace activin A (protein, UniProt P12644 293-408, looked up)
Bone morphogenetic protein 4: SPKHHSQRARKKNKNCRRHSLYVDFSDVGWNDWIVAPPGYQAFYCHGDCPFPLADHLNSTNHAIVQTLVNSVNSSIPKACCVPTELSAISMLYLDEYDKVVLKNYQEMVVEGCGCR
In the case of B2, the “expression of stem cell markers oct-4, nanog (telomerase), RT-PCR” value in the assay on hES cells [6] is “loss of expression for nanog, oct-4, and telomerase; also recorded: complete loss of expression for nanog and oct-4”.

The values above are taken from patent US20090155218A1, “COMPOSITIONS AND METHODS FOR GROWTH OF EMBRYONIC STEM CELLS” (priority 2004, published 2009).
